Results: patent US20130131321A1, “LIGANDS FOR ANTIBODY AND Fc-FUSION PROTEIN PURIFICATION BY AFFINITY CHROMATOGRAPHY” (GRAFFINITY PHARMACEUTICALS GMBH, priority 2010, published 2013)

How the values were obtained:
[1] = molecular target: T1, Bevacizumab (Homo sapiens, UniProt P01857); test: Uptake kinetics by batch adsorption (time-scale of binding); parameters: species or system humanized; conditions: 0.75 mg ml^−1 Bevacizumab in PBS, 25° C.
T1 construct: fused on or other part: humanised anti-VEGF-A VH domain N-terminal of the gamma-1 constant region (engineered, no UniProt entry)
Description: Uptake kinetics were investigated similarly by batch adsorption in 96-well filter plates. Again, 10 μl of sorbent slurry (50% v/v) were mixed with 100 μl of protein solution. However, a fixed initial concentration of 0.75 mg ml^−1 Bevacizumab in PBS was used. Reactions were agitated vigorously at 25° C. for up to 80 min. Supernatants were separated rapidly by spinning through filters after 2.5, 5, 10, 20, 40 and 80 minutes and sampled for analysis. Concentrations of the antibody were analyzed by Bradford assay.
Uptake kinetics were characterized by a time-scale of binding t0.8, which was defined as the time after which 80% of the equilibrium saturation of resin with antibody had occurred. For determination of t0.8, measured concentrations in the supernatant were interpolated by fitting of double-exponentials (5) and values of t0.8 were read out from graphs. Parameters of Langmuir isotherms and time-scales of binding for in-house resins as well as for reference resins are reported in the table below.

[2] = system: human poly-IgG (h-poly-IgG); test: Microtiter plate chromatography of resins, human poly-IgG (bound, yield); type: binding
[3] = molecular target: T1, Bevacizumab; test: Langmuir isotherms by batch adsorption; type: binding, humanized; conditions: Bevacizumab in PBS pH 7.3, 25° C., at least 3 h
Description: Experiments were performed with Bevacizumab as antibody. Parameters of Langmuir isotherms for purified antibody were determined by batch adsorption experiments in 96-well microtiter plates. In each well, 10 μl of sorbent slurry (50% v/v) were mixed with 100 μl of protein solution. Initial concentrations varied from 0.05-5 mg ml^−1 in phosphate-buffered saline (0.15 M NaCl, 20 mM phosphate buffer, pH 7.3; PBS). Reactions were agitated vigorously at 25° C. for at least 3 h. Afterwards, antibody concentration in the supernatents were measured by Bradford assay.
Parameters of Langmuir isotherms, i.e. dissociation constants Kd and maximum capacities qm, were determined from the measured concentrations in supernatants. Parameters were estimated by numerical fitting of the model equation derived by Chase (4).

[4] = system: host cell proteins (HCP); test: Microtiter plate chromatography of resins, host cell proteins (bound); type: binding, CHO; conditions: host cell proteins
[5] = molecular target: T1, Bevacizumab; test: Dynamic and equilibrium binding capacity by column chromatography; parameters: species or system humanized; conditions: 1 mg ml^−1 Bevacizumab
Description: Dynamic binding capacities were determined by column chromatography with purified Bevacizumab. Resins were packed into analytical columns of 25 mm length and 3 mm inner diameter. Columns were fed with 1 mg ml^−1 antibody in phosphate-buffered saline (150 mM NaCl, 20 mM phosphate buffer, pH 7.3) at constant flow rate, while the concentration of antibody in effluents was monitored online via absorbance at 280 nm. Antibody was loaded until effluent concentration reached at least 10% of the feed concentration. Dynamic binding capacities were determined at a flow rate of 50 cm h^−1, corresponding to 3 min empty column residence time. Equilibrium capacities were also determined at a flow rate of 50 cm h^−1 by loading until complete breakthrough of antibody. […]
‘Dynamic capacity’ was defined as the amount of antibody that can be injected onto a column at constant flow rate until the effluent concentration reaches 10% of the feed concentration. It was calculated as the time t0.1 after which 10% breakthrough occurred, multiplied by the flow rate F and feed concentration cf.
Equilibrium capacity is defined as the maximum amount of antibody that binds to a column for a given feed stream concentration. It was calculated by evaluation of the following integral
The integral was evaluated numerically. […]

[6] = molecular target: T1, Bevacizumab; test: Microtiter plate chromatography of resins, Bevacizumab whole IgG (bound, yield, selectivity); type: binding, humanized

COc1ccc(NC(=O)c2cc(-c3ccco3)n(C)n2)cc1C(=O)NCCCN [Ligand L1, 5-[5-(2-Furyl)-1-methylpyrazol-3-yl]carboxamido-2-methoxybenzoic acid N-(3-aminopropyl)amide]
t0.8 (time-scale of binding, 80% of equilibrium saturation) [1]: 9.9 min
h-poly-IgG Bound (%) [2]: 100%
h-poly-IgG Yield (%) [2]: 90%
qm (maximum capacity, Langmuir isotherm) [3]: 36 mg per ml resin
HCP Bound (%) [4]: 30%
Dynamic Capacity ([5]; 50 cm h^−1, 10% breakthrough): 20.2 mg per ml of resin
Equilibrium Capacity ([5]; 50 cm h^−1, complete breakthrough): 25.7 mg per ml of resin
Bevacizumab IgG Bound (%) ([6]; fraction of whole IgG Bevacizumab bound to resin): 100%
Bevacizumab IgG Yield (%) ([6]; mass of whole IgG Bevacizumab eluted / mass injected): 91%
